Common to all, as to format: biochemical
Series [1] deals with T1, NANOLUC® Luciferase (Oplophorus gracilirostris, UniProt Q9GV45, A31E/A60N/A81I/F95D/I117V/K70R/L54V/L99Q/M102K/N193R/P142E/Q151K/Q38R/Q45L/V71I/Y165I). In words: Luminescence assay with purified NANOLUC luciferase (Example 7). To be noted: value marked (Autolum): autoluminescence.
The target in series [2] is T1, NANOLUC® Luciferase. As to the kind of experiment: Spectral measurements in various buffers with NANOLUC luciferase (Example 10). The conditions noted are these: for shift of the NanoLuc luciferase spectral properties: FIGS. 3A-3C and 4A-4D; for NanoGlo (spectral peak, Table 4) / OptiMEM (spectral peak, Table 4) / High / Low / Peak / Width: NanoLuc; for NanoGlo (spectral peak, Table 4): NanoGlo buffer; for High / Low / Peak / Width: emission spectrum. The protocol:
(§1) Each compound to be screened was diluted to a concentration of 100 uM (50 uM final concentration) in Renilla Glo Luciferase Assay buffer (Promega Corporation), NANO-GLO Luciferase Assay Buffer (Promega Corporation), or 20 uM (10 uM final) in OptiMEM+0.1% FBS. NANOLUC® luciferase and Renilla luciferase were serially diluted to 4, 40, and 400 ng/ml in OptiMEM+0.1% FBS. 50 ul of each compound dilution was mixed with 50 ul enzyme dilution and incubated for 1 minute at room temperature. Autoluminescence spectra of AS-353 was measured by adding 20 uM of substrate to OptiMEM+20% FBS and then 50 ul of this dilution was combined with 50 ul of OptiMEM+0.1% FBS. Spectral measurements were measured using a Tecan M-1000 luminometer. ([…]).

Series [3] concerns the target T1, NANOLUC® Luciferase. In words: Enzyme titration with NanoLuc luciferase (Example 9B). The conditions noted are these: FIG. 2B. The protocol: (§2) Renilla luciferase and NanoLuc Lucifersase were diluted to a concentration of 4 ug/ml (4 ng/uL) in OptiMEM+0.1% FBS. 10× serial dilutions of the luciferases were then prepared in OptiMEM+0.1% FBS. Each substrate was diluted to 100 uM into Renilla Glo Luciferase assay buffer (Promega Corporation). The 10× enzyme serial dilutions were then combined with the substrate dilutions, 50 ul mixed with 50 ul compound, and incubated for 1 minute at room temperature. Light output for each compound was measured on a GLOMAX®-Multi+ luminometer.

For series [4], the target named is T2, Renilla luciferase (Renilla reniformis, UniProt P27652).
T2 sequence (P27652 1-311): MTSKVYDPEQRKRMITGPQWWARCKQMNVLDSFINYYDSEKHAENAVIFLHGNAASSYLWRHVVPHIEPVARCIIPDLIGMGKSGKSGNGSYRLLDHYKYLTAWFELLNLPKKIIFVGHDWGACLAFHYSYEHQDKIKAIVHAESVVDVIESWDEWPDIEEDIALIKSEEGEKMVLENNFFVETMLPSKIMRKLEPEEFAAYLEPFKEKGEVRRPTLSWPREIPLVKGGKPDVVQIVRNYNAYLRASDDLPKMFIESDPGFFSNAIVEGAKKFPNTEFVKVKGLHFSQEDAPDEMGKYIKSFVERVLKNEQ
As to the kind of experiment: Enzyme titration with Renilla luciferase (Example 9B). The conditions noted are these: FIG. 2B. The protocol: as §2

For series [5], the target named is T2, Renilla luciferase. As to the kind of experiment: Spectral measurements in various buffers with Renilla luciferase (Example 10). Also on record: Low / High / Width: unit not given here. The protocol:
as §1

Substrate in series [6]: O=c1c(Cc2ccco2)nc2c(Cc3ccccc3)[nH]c(-c3ccccc3)cn1-2
In words: Km and Vmax substrate titration with Renilla luciferase (Example 8). To be noted: other: Renilla luciferase 4 ng/ml; Renilla Glo buffer; Michaelis-Menten fit. The protocol: Each compound to be screened was diluted to a concentration of 100 uM in Renilla Glo Luciferase Assay buffer (Promega Corporation) and then further diluted to 2×serial dilution in Renilla Glo Luciferase Assay Buffer. NANOLUC® luciferase and Renilla luciferase were diluted to a concentration of 4 ng/ml in OptiMEM+0.1% FBS. 50 ul of each compound dilution was then mixed with 50 ul of each enzyme dilution and incubated for 1 minute at room temperature. Light output for each compound was measured on a GLOMAX®-Multi+ luminometer. Km and Vmax were calculated for each enzyme/substrate combination using a GraphPad Prism Michaelis-Menten non-linear fit (FIGS. 1A-ID).

[7] abbreviates: emission spectrum, Renilla/RenillaGlo.

T1 sequence (Q9GV45 28-196 with tags or gaps with the stated changes limits assumed): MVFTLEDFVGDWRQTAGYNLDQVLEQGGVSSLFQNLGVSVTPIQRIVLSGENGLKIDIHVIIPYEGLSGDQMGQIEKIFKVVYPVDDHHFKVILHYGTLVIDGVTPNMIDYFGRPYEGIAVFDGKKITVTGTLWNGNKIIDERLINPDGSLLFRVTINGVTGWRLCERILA

Turning to `N#Cc1ccc(-c2[nH]c(-c3cccs3)cn3c(=O)c(Cc4ccco4)nc2-3)s1` [AS-287, 5-(2-(furan-2-ylmethyl)-3-oxo-6-(thiophen-2-yl)-3,7-dihydroimidazo[1,2-a]pyrazin-8-yl)thiophene-2-carbonitrile], the “λmax, nm (Autolum)” value at NANOLUC® Luciferase [1] is listed as 556 (Autolum) nm.

As to `N#Cc1ccc(-c2[nH]c3ccccc3n3c(=O)c(Cc4ccco4)nc2-3)s1` [AS-293, 5-(2-(furan-2-ylmethyl)-1-oxo-1,5-dihydroimidazo[1,2-a]quinoxalin-4-yl)thiophene-2-carbonitrile], the “λmax, nm (Autolum)” value on NANOLUC® Luciferase [1] is listed as 596 (Autolum) nm.

Regarding `O=c1c(Cc2ccco2)nc2c(-c3ccnc(F)c3)[nH]c(-c3ccnc(F)c3)cn1-2` [AS-295, 26,8-bis(2-fluoropyridin-4-yl)-2-(furan-2-ylmethyl)imidazo[1,2-a]pyrazin-3(7H)-one], at NANOLUC® Luciferase [1], the “λmax, nm (Autolum)” value is 520 (Autolum) nm.

Regarding `N#Cc1ccc(-c2[nH]c(-c3ccc(O)cc3)cn3c(=O)c(Cc4ccco4)nc2-3)s1` [AS-353, 5-(2-(furan-2-ylmethyl)-6-(4-hydroxyphenyl)-3-oxo-3,7-dihydroimidazo[1,2-a]pyrazin-8-yl)thiophene-2-carbonitrile], at NANOLUC® Luciferase [2], the “shift of the NanoLuc luciferase spectral properties” value was “shifted the NanoLuc® luciferase spectral properties to red”; the “NanoGlo (spectral peak, Table 4)” value was 592; the “OptiMEM (spectral peak, Table 4)” value is recorded as 583. At NANOLUC® Luciferase [2] (NanoGlo Buffer), this molecule came in with a High of 652, a Low of 550, a Peak of 592 and a Width of 102. At NANOLUC® Luciferase [2] (OptiMEM + 0.1% FBS), the High was determined as 637, the Low amounted to 544, the Peak was found to be 583 and the Width is listed as 93. On NANOLUC® Luciferase [3] (substrate 100 uM), the “lower RLU values with NanoLuc compared to AS-360” value is reported as approximately 100 ×. Moreover, at Renilla luciferase [4], the “enzyme dependent luminescence with Renilla Luciferase” value was “only at the highest enzyme concentration”.

For `O=c1c(Cc2ccco2)nc2c(-c3ccnc4ccccc34)[nH]c(-c3ccc(O)cc3)cn1-2` [AS-360, 2-(furan-2-ylmethyl)-6-(4-hydroxyphenyl)-8-(quinolin-4-yl)imidazo[1,2-a]pyrazin-3(7H)-one], at NANOLUC® Luciferase [2], the “shift of the NanoLuc luciferase spectral properties” value was “shifted the NanoLuc® luciferase spectral properties to red”; the “NanoGlo (spectral peak, Table 4)” value came out at 589; the “OptiMEM (spectral peak, Table 4)” value is 583. At NANOLUC® Luciferase [2] (NanoGlo Buffer), this molecule came in with a High of 647, a Low of 538, a Peak of 589 and a Width of 109. At NANOLUC® Luciferase [2] (OptiMEM + 0.1% FBS), the High was 646, the Low was determined as 532, the Peak was 583 and the Width was found to be 114. Further, at NANOLUC® Luciferase [3] (NanoLuc luciferase), the “luminescence rank in the panel tested” value is “brightest luminescence in the panel tested”. The “brighter than both Renilla and NanoLuc luciferase with AS-361” value at NANOLUC® Luciferase [3] (NanoLuc luciferase, substrate 100 uM) is approximately 30 ×. For the same molecule, the “RenillaGlo (spectral peak, Table 4)” value at Renilla luciferase [5] (Renilla, RenillaGlo buffer) is given as 487. Moreover, at Renilla luciferase [5] (setting [7]), the High turned out to be 553, the Low is 451, the Peak is given as 487 and the Width is recorded as 102.

B1: Renilla luciferase (Renilla reniformis) (protein)
chain: MTSKVYDPEQRKRMITGPQWWARCKQMNVLDSFINYYDSEKHAENAVIFLHGNAASSYLWRHVVPHIEPVARCIIPDLIGMGKSGKSGNGSYRLLDHYKYLTAWFELLNLPKKIIFVGHDWGACLAFHYSYEHQDKIKAIVHAESVVDVIESWDEWPDIEEDIALIKSEEGEKMVLENNFFVETMLPSKIMRKLEPEEFAAYLEPFKEKGEVRRPTLSWPREIPLVKGGKPDVVQIVRNYNAYLRASDDLPKMFIESDPGFFSNAIVEGAKKFPNTEFVKVKGLHFSQEDAPDEMGKYIKSFVERVLKNEQ
Consider B1, for which, in series [6], the Michaelis-Menten constant (Km) is 10.6 µM.

Broadly, the Km is the concentration of substrate that gives half-maximal velocity.

The record behind these values is patent US10000500B2 (PROMEGA CORPORATION, priority 2016, dated 2018).
